Experimental data published in publication PMC5501740 (Clinical and experimental allergy : journal of the British …, 2017).
Residues, ends and D or L forms follow the SMILES beside them. *: point of attachment. AMC = Cc1cc(=O)oc2cc(N*)ccc12; Boc = CC(C)(C)OC(=O)*

Experiments:
Experiment in all cases: fluorogenic AMC release, Michaelis-Menten fit
Type in all cases: biochemical, Blattella germanica
Conditions in all cases: read-out: Substrate Km (μM) / QAR / Trypsin; 50 mM Tris-HCl pH 8, 0.2% NP40, 1.5 mM CaCl2
[1] = test system: E1
[2] = test system: E2
[3] = test system: E3

## Cc1cc(=O)oc2cc(NC(=O)[C@H](CCCNC(=N)N)NC(=O)[C@H](C)NC(=O)[C@H](CCC(N)=O)NC(=O)OC(C)(C)C)ccc12 [QAR, Boc-Glutamine-Alanine-Arginine (QAR)-aminomethylcoumarin] (Boc-Gln-Ala-Arg-{AMC})
[1]
  Km: 3 ± 0.8 µM
[2]
  Km: 2 ± 0.3 µM
[3]
  Km: 3 ± 0.3 µM
